US9096601B2 (CSPC Zhongqi Pharmaceutical Technology (Shijiazhuang) Co., …, priority 2010, dated 2015)

Assays:
[1] = biological target: EGFR L858R mutant type (Homo sapiens (Human), UniProt P00533, L858R); test: Kinase inhibitory activity, isotopic labeling (γ-33P-ATP); type: biochemical; conditions: ATP 200 μM (Km)
Description: (§1) The object of this assay was to test the inventive compounds for the kinase inhibitory activity in vitro. In this assay, an isotopic labeling method was used to label the γ phosphate group on ATP. […] Staurosporine was used as a reference molecule (or referred to as a positive control). […] The IC50 value can be obtained by the calculation of the inhibitory rates at a series of different concentrations of the tested compounds.
(§2) To a reaction tube were successively added the buffer solution (8 mM MOPS, pH 7.0, 0.2 mM EDTA, 10 mM MnCl2), the kinase to be tested (5-10 mU) (EGFR/ALK/BTK/c-KIT/c-SRC/MET/PDGFRα/VEGFR2), the substrate for the kinase to be tested (a reference material), 10 mM of the solution of magnesium acetate and γ-^33 P-ATP, and different concentrations of the tested compounds. […] The reaction was terminated with […] of the 3% phosphate buffer solution. 10 μL of the reaction liquid was titrated on the Filtermat A membrane. The membrane was washed with 75 mM of the phosphate solution thrice (5 minutes each time), and then with methanol once, and finally dried. The membrane was subjected to a scintillation counting. The value of the scintillation counting reflected the phosphorylation level of the substrate and therefore could characterize the inhibition of the kinase activity.

[2] = biological target: EGFR L858R/T790M double mutant type (Homo sapiens (Human), UniProt P00533, L858R/T790M); test: as above; type: biochemical; conditions: ATP 45 μM (Km)
Description: as §1, §2

[3] = biological target: EGFR wild type (Homo sapiens (Human), UniProt P00533); test: as above; type: biochemical; conditions: ATP 10 μM (Km)
Description: as §1, §2

[4] = biological target: ALK (Homo sapiens (Human), UniProt Q9UM73); test: as above; type: biochemical; conditions: compound at 10 μM
Description: (§3) The object of this assay was to test the inventive compounds for the kinase inhibitory activity in vitro. In this assay, an isotopic labeling method was used to label the γ phosphate group on ATP. EGFR (including wild type, L858R mutant type and L858R/T790M double mutant type), VEGFR2, ALK, BTK, c-KIT, c-SRC, MET, PDGFRα and FLT3 kinases were tested in vitro for the activity inhibition. Staurosporine was used as a reference molecule (or referred to as a positive control). […] The IC50 value can be obtained by the calculation of the inhibitory rates at a series of different concentrations of the tested compounds.
as §2

[5] = biological target: BTK (Homo sapiens (Human), UniProt Q06187); test: as above; type: biochemical; conditions: compound at 10 μM
Description: as §3, §2

[6] = biological target: FLT3 (Homo sapiens (Human), UniProt P36888); test: as above; type: biochemical; conditions: compound at 10 μM
Description: as §3, §2

[7] = biological target: MET (Homo sapiens (Human), UniProt P08581); test: as above; type: biochemical; conditions: compound at 10 μM
Description: as §3, §2

[8] = biological target: PDGFRα (Homo sapiens (Human), UniProt P16234); test: as above; type: biochemical; conditions: compound at 10 μM
Description: as §3, §2

[9] = biological target: VEGFR2 (Homo sapiens (Human), UniProt P35968); test: as above; type: biochemical; conditions: ATP 90 μM (Km)
Description: as §3, §2

[10] = biological target: c-KIT (Homo sapiens (Human), UniProt P10721); test: as above; type: biochemical; conditions: compound at 10 μM
Description: as §3, §2

[11] = biological target: c-SRC (Homo sapiens (Human), UniProt P12931); test: as above; type: biochemical; conditions: compound at 10 μM
Description: as §3, §2

[12] = system: colon cancer cell strain SW480; test: In-vitro tumor cell proliferation inhibition, MTT; type: cell-based, human; conditions: 72 hours
[13] = system: colon cancer cell strain SW620; test: In-vitro tumor cell proliferation inhibition, MTT; type: cell-based, human; conditions: 72 hours
Outline: (§4)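 MTT colorimetric proliferation test: plated cells exposed 72 h to compound dilution series, DMSO 1% solvent control included. A570 gave inhibition relative to drug-free control; IC50 or inhibitory rate from at least three experiments. HCC827 and BT474 grown in RPMI-1640, A431 and SW620 in DMEM, both with 10% FBS.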

[14] = system: malignant melanoma cell strain A375; test: In-vitro tumor cell proliferation inhibition, MTT; type: cell-based, human; conditions: 72 hours
[15] = system: squamous cell carcinoma cell strain A431; test: In-vitro tumor cell proliferation inhibition, MTT; type: cell-based, human; conditions: 72 hours
Outline: as §4

c-SRC, sequence (P12931 whole entry, looked up): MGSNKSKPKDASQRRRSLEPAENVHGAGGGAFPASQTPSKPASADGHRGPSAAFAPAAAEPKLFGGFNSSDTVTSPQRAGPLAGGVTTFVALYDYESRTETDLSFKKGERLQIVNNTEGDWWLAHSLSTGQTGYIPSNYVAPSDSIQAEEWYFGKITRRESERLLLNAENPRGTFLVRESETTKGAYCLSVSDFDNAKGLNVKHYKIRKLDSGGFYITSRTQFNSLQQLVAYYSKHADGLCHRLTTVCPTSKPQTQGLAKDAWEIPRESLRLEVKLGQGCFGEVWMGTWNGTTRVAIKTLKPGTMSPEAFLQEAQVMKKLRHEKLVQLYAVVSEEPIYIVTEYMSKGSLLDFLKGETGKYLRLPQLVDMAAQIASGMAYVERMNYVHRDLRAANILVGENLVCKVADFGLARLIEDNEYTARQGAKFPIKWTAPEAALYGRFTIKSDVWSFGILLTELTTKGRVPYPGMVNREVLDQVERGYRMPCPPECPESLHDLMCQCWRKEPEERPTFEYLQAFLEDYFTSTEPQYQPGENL
BTK, sequence (Q06187 whole entry): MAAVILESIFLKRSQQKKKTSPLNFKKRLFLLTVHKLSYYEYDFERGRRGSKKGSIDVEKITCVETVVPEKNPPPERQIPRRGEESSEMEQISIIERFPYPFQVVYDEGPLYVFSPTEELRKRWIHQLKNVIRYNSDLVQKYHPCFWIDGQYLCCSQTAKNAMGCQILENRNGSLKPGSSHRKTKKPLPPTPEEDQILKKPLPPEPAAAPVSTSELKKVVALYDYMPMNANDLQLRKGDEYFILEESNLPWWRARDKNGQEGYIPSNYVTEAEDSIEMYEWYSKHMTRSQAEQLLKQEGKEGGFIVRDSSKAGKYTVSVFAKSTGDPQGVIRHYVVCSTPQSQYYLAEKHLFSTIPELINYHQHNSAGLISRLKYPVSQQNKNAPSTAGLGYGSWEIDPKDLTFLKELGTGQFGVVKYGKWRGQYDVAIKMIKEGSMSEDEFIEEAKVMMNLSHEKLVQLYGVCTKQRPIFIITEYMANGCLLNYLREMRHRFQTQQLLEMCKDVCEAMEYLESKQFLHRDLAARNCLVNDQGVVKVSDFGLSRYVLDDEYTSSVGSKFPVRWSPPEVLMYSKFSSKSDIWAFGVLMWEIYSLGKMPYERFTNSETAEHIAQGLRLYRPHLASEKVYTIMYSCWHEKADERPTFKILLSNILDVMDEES
FLT3, sequence (P36888 27-993): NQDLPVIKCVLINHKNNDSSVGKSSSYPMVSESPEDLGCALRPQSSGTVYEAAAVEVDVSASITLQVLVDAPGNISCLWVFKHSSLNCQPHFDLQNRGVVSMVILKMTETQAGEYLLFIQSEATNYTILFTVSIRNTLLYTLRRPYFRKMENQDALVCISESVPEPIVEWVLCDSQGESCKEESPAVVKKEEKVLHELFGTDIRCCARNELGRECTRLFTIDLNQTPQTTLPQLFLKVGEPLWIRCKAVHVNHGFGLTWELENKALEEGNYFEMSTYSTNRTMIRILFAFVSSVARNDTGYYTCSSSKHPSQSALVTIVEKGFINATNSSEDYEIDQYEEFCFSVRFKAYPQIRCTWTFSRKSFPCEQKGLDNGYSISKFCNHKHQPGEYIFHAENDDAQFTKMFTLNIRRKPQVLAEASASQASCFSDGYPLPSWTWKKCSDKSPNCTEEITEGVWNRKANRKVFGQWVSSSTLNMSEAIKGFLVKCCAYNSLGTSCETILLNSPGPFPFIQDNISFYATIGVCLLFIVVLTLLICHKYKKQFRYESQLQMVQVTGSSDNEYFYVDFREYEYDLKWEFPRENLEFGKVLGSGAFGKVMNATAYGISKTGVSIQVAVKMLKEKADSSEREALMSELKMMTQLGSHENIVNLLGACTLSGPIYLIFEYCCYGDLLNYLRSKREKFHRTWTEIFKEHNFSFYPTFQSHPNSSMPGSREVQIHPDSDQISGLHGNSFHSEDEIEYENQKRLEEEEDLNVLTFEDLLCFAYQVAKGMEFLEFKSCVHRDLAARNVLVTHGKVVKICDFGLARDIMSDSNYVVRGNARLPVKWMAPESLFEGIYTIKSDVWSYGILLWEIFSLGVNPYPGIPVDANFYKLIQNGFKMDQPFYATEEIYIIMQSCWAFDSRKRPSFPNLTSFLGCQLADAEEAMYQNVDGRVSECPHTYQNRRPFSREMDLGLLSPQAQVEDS
EGFR L858R/T790M double mutant type, sequence (P00533 25-1210 T790M/L858R): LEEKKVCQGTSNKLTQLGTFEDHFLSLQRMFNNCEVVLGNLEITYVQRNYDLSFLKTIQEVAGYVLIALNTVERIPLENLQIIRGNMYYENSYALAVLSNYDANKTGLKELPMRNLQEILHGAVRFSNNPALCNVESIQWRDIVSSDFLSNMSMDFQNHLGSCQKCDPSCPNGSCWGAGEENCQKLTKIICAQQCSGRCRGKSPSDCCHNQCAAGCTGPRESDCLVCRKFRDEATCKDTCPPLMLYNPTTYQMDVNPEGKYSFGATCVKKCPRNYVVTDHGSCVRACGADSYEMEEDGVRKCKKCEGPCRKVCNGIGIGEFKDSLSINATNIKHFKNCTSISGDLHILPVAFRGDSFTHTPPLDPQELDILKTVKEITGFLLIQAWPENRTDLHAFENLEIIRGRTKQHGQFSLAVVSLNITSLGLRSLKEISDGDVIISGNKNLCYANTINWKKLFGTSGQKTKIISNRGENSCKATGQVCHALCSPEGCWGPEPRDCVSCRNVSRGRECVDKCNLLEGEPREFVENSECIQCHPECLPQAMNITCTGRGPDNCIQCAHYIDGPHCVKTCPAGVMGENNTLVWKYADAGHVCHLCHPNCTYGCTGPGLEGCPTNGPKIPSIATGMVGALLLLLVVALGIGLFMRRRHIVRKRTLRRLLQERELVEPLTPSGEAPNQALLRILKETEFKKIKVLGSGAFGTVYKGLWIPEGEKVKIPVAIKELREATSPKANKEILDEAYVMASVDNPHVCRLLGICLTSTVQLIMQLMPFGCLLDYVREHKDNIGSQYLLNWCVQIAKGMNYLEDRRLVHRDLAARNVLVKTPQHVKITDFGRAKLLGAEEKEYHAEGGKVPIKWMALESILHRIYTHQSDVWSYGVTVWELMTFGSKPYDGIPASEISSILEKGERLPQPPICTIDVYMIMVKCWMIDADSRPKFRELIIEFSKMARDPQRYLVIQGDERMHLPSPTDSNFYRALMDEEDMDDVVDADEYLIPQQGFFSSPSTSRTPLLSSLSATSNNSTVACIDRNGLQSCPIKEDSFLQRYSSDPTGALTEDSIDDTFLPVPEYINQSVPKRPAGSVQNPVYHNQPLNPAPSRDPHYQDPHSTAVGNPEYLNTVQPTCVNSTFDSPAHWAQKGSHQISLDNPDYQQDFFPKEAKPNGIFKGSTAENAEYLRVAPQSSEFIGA
c-KIT, sequence (P10721 26-976): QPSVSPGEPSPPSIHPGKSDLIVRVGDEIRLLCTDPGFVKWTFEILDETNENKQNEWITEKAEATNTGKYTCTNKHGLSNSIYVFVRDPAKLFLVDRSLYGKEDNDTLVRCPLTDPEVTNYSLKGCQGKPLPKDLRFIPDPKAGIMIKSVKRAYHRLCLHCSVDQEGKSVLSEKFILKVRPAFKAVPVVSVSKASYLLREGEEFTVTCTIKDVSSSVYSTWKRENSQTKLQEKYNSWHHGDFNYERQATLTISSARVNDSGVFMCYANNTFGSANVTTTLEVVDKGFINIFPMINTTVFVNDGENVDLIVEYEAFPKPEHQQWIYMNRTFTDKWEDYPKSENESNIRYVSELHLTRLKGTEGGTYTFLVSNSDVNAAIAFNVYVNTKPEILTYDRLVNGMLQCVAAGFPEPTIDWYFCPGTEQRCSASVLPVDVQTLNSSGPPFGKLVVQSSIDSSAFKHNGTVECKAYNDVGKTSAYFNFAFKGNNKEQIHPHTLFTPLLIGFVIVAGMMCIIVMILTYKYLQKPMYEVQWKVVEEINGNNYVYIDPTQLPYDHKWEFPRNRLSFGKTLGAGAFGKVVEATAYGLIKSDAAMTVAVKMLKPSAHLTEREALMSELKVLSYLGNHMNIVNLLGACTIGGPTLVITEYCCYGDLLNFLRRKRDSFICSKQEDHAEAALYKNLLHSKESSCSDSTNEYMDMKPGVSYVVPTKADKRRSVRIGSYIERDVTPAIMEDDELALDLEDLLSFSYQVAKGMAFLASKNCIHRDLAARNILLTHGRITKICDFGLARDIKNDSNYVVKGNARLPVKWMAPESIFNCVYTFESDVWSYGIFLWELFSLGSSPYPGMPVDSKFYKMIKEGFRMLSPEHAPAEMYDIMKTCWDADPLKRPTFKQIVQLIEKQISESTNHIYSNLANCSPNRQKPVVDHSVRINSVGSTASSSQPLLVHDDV

Compound	IC50 [1] [µM]	IC50 [2] [µM]	IC50 [3] [µM]	The kinase activity inhibitory rate (%) by the tested compounds at 10 μM ALK [4] [%]	The kinase activity inhibitory rate (%) by the tested compounds at 10 μM BTK [5] [%]	The kinase activity inhibitory rate (%) by the tested compounds at 10 μM FLT3 [6] [%]	The kinase activity inhibitory rate (%) by the tested compounds at 10 μM MET [7] [%]	The kinase activity inhibitory rate (%) by the tested compounds at 10 μM PDGFRα [8] [%]	IC50 [9] [µM]	The kinase activity inhibitory rate (%) by the tested compounds at 10 μM c-KIT [10] [%]	The kinase activity inhibitory rate (%) by the tested compounds at 10 μM c-SRC [11] [%]	IC50 [12] [µM]	IC50 [13] [µM]	IC50 [14] [µM]	IC50 [15] [µM]
CC(C)n1c(Nc2ccc(F)c(Cl)c2)nc2cnc(Nc3ccc(N4CCN(C)CC4)cc3)nc21 [Compounds 8-13]	0.003	0.009	0.004	78	45	89	100	90	> 1	87	31	> 10	3.68	0.838	1.29
CC(C)n1c(Nc2ccc(Br)cc2)nc2cnc(Nc3ccc(N4CCN(C)CC4)cc3)nc21 [Compounds 8-15]	0.001	0.015	0.003	40	95	90	45	94	0.004	94	97	> 10	2.99	0.775	9.4
CC(C)n1c(Nc2cccc(C(F)(F)F)c2)nc2cnc(Nc3ccc(N4CCN(C)CC4)cc3)nc21 [Compounds 8-16]	0.001	0.012	0.003	17	57	45	93	39	> 1	62	90	6.48	0.864	3.1	5.88
COc1cccc(Nc2nc3cnc(Nc4ccc(N5CCN(C)CC5)cc4)nc3n2C(C)C)c1 [Compounds 8-17]	0.001	0.004	0.004	35	100	86	52	72	> 1	89	99	> 10	> 1	0.19	8.46
COc1ccc(Nc2nc3cnc(Nc4ccc(N5CCN(C)CC5)cc4)nc3n2C(C)C)cc1 [Compounds 8-18]	0.005	0.057	0.03	13	56	75	7	60	0.021	76	93	> 10	4	6.46	6.35
CC(C)n1c(Nc2ccc(NC(=O)Nc3ccc(F)c(Cl)c3)cc2)nc2cnc(Nc3ccc(N4CCN(C)CC4)cc3)nc21 [Compounds 8-21]	0.005	0.005	0.011	97	92	78	99	100	> 1	101	98	> 10	2.23	0.725	5.72
CC(C)n1c(Nc2ccc(C(=O)Nc3cccc(F)c3)cc2)nc2cnc(Nc3ccc(N4CCN(C)CC4)cc3)nc21 [Compounds 8-22]	0.01	0.087	0.117	70	63	87	69	43	> 1	10	98	> 10	1.92	1.3	5.52
CN1CCN(c2ccc(Nc3ncc4nc(Nc5ccccc5)n(C5CC5)c4n3)cc2)CC1 [Compounds 8-23]	0.002	0.041	0.007	3	30	68	1	28	> 1	26	83	> 10	> 10	3.18	7.04
